Experiment [1] has as its target 15-PGDH enzyme (Homo sapiens (Human), UniProt P15428). The experiment can be described thus: Detection of activity of 15-PGDH (enzyme inhibition, NADH fluorescence, PGF2α/β-NAD substrates). Type of experiment: biochemical. As to the method:
Test Example 1: Detection of Activity of 15-PGDH Kinase
• a. A solution of pH 7.5 containing 50 mM Tris-HCl, 0.01% Tween 20 was prepared with ultrapure water as a reaction buffer; • b. A 10 mM mother liquor of the compound to be tested was prepared with DMSO, and then the reaction buffer was used to dilute the mother liquor of the compound to be tested to obtain solution 1 of the compound to be tested at a concentration of 40,000 nM, and then the solution 1 of the compound to be tested was serially diluted into solutions 2-9 (or 2-12) of the compound to be tested at 9 (or 11) concentrations with a gradient difference of three-fold. 5 μL of each concentration of solutions of the compound to be tested was respectively taken and added into a 384-well plate as test wells; • c. 5 μL of the reaction buffer was added to the blank wells of the 384-well plate as positive control and blank control wells, respectively; • d. The reaction buffer was used to prepare a 15-PGDH protein solution at a concentration of 5 ng/μL, 5 μL of the 15-PGDH protein solution was taken and added to the test wells and positive control wells, and meanwhile 5 μL of the reaction buffer was added to the blank control wells, then the plate was centrifuged at 2000 rpm for 30 seconds; • e. The reaction buffer was used to prepare 5 mM β-NAD and 2 mM PGF2α, respectively, which were mixed at 1:1 by volume to obtain a substrate mixture, 10 μL of the substrate mixture was taken and added to the test wells, positive control wells and blank control wells to start the reaction; • f. The fluorescence signal value (Ex/Em=340/450) of each well was detected continuously by using a multifunctional microplate reader.
• a) Continuous fluorescence signal values were analyzed by using the “kinetic calculations-slope calculation method” in the PHERAstar Data analysis software to obtain the slope of each test well; • b) The inhibition rate % was calculated by using the following formula:
[formula] • c) Calculation of IC50 and plotting of inhibition rate-dose curves: IC50 values were calculated by fitting compound concentrations and corresponding inhibition rates with a nonlinear regression (dose response-variable slope) via using GraphPad Prism 6.0. The formula was shown below:
Y=Bottom+(Top−Bottom)/(1+10^((Log IC50−X)*HillSlope)), wherein X is a log value of a concentration of the compound, and Y is inhibition rate %.

In experiment [2] the test system is A549 cells. The experiment in a line: Assay of intracellular PGE2 up-regulatory activity in IL-1β-stimulated A549 cells. The format is cell-based. The following applies: IL-1β induced, 8 h. As to the method:
Test Example 2: Assay of Intracellular PGE2 Up-Regulatory Activity
a) A549 cells were inoculated in the 24-well plate, and after cell adhesion, IL-1β was added thereto for 16 h of stimulation to induce COX2 expression and PGE2 production. b) A solution of the compound to be tested was prepared with the culture medium and gradiently diluted to 3 concentrations of 10 nM, 300 nM and 10,000 nM or 7 concentrations of 0.64 nM, 3.2 nM, 16 nM, 80 nM, 400 nM, 2000 nM and 10,000 nM, and meanwhile the positive control group (only IL-1β was added to the cells for induction) and negative control group (only cells were added in the wells without any treatment) were set up. The cell supernatants were collected after 8 h of action, in which the positive control group was induced by IL-1β without treatment of the compounds, and the negative control group was neither stimulated by IL-1β, nor treated with the compounds. c) The PGE2 content of the samples was determined by Prostaglandin E2 Kit, and the fluorescence signal was detected by a multifunctional microplate reader (Ex/Em=337/620, 337/665).
a) A standard curve was plotted with the PGE2 standard in the Prostaglandin E2 Kit, and the PGE2 concentration was calculated by substituting with the fluorescence signal of the sample. b) The PGE2 up-regulation rate % was calculated by using the following formula: […]

The mark [3] stands for this setting: inhibitory activity against 15-PGDH enzyme, class symbols, read-out: IC50.

The results in this text go back to patent US20250250283A1, “COMPOUND CAPABLE OF REGULATING AND CONTROLLING ACTIVITY OF 15-PGDH, AND PREPARATION METHOD THEREFOR” (SCINNOHUB PHARMACEUTICAL CO., LTD., priority 2022, published 2025).

Like-named read-outs stand apart in the source and are kept apart here. Some results are limits rather than exact numbers.

Broadly, the IC50 is the point on the concentration scale where inhibition reaches its midpoint.

Chain of 15-PGDH enzyme (P15428 whole entry): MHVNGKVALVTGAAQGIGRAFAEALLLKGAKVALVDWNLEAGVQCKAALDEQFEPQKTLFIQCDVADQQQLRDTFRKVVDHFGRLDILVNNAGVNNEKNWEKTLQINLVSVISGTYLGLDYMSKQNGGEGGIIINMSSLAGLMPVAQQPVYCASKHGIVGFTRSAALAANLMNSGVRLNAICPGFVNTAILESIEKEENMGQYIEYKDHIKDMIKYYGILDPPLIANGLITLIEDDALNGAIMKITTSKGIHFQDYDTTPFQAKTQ

As for `CC(C)c1c(C(=O)N2CCCCC2)sc2nc(-c3ccccc3)n3ccnc3c12` [Example 23, (9-isopropyl-5-phenylimidazo[1,2-c]thieno[3,2-e]pyrimidin-8-yl)(piperidin-1-yl)methanone], the IC50 in experiment [1] (setting [3]) lay in the range of 3 to 10 nM.
Same read-out and setting: as for `Nc1c(C(=O)N2CCC(F)CC2)sc2c1C1=NCCN1C(c1ccccc1)=N2` [Compound 8, (9-amino-5-phenyl-2,3-dihydroimidazo[1,2-c]thieno[3,2-e]pyrimidin-8-yl)(4-fluoropiperidin-1-yl)methanone], the figure is 10 to 25 nM; as for `Nc1c(C(=O)N2CCCC2)sc2nc(-c3ccccc3)n3ccnc3c12` [Example 17], 25 to 50 nM; as for `O=C(c1sc2nc(-c3ccccc3)n3ccnc3c2c1C(F)(F)F)N1CCCCC1` [Example 12], 3 to 10 nM.
Still for that read-out and setting: as for `O=C(c1sc2nc(-c3ccccc3)n3ccnc3c2c1I)N1CCCCC1` [Example 4, (9-iodo-5-phenylimidazo[1,2-c]thieno[3,2-e]pyrimidin-8-yl)(piperidin-1-yl)methanone], the figure is below 3 nM.
For the molecule `Nc1c(C(=O)N2CCCCC2)sc2nc(-c3ccncc3)n3ccnc3c12` [Example 3, (9-amino-5-(pyridin-4-yl)imidazo[1,2-c]thieno[3,2-e]pyrimidin-8-yl)(piperidin-1-yl)methanone], the IC50 in experiment [1] (setting [3]) was below 3 nM.
The same measure, in the same setting: the figure for `Cc1c(C(=O)N2CCCCC2)sc2nc(-c3ccccc3)n3ccnc3c12` [Example 13] is 3 to 10 nM.
On the same count and under the same terms, as for `CCN(CC)C(=O)c1sc2nc(-c3ccccc3)n3ccnc3c2c1N` [Example 16], the figure is 25 to 50 nM.
Turning to `Cc1cn2c(-c3ccccc3)nc3sc(C(=O)N4CCC(F)CC4)c(N)c3c2n1` [Example 9], the IC50 in experiment [1] (setting [3]) lay in the range of 3 to 10 nM. In experiment [2] (compound 400 nM), this molecule had a PGE2 up-regulation rate of 333%.
Regarding `O=C(c1sc2nc(-c3ccccc3)n3ccnc3c2c1C1CC1)N1CCCCC1` [Example 14], in experiment [1] (setting [3]), the IC50 lay within 3 to 10 nM.
Same read-out and setting: as for `Nc1c(C(=O)N2CCC(F)CC2)sc2nc(-c3ccccc3)n3cc(C(F)(F)F)nc3c12` [Example 2, (9-amino-5-phenyl-2-(trifluoromethyl)imidazo[1,2-c]thieno[3,2-e]pyrimidin-8-yl)(4-fluoropiperidin-1-yl)methanone], the figure is 3 to 10 nM; as for `Nc1c(C(=O)N2CCCCC2)sc2nc(-c3ccccc3)n3cnnc3c12` [Example 5, (9-amino-5-phenylthieno[3,2-e][1,2,4]triazolo[4,3-c]pyrimidin-8-yl)(piperidin-1-yl)methanone], 3 to 10 nM.
For `Nc1c(C(=O)N2CCC(F)(F)CC2)sc2nc(-c3ccccc3)n3ccnc3c12` [Example 8], the IC50 in experiment [1] (setting [3]) lay in the range of 3 to 10 nM. Also, the PGE2 up-regulation rate in experiment [2] (compound 16 nM) amounted to 483%; in experiment [2] (compound 80 nM), 520%; in experiment [2] (compound 400 nM), 770%.
Regarding `Nc1c(C(=O)N2CCCCC2)sc2nc(-c3cccnc3)n3ccnc3c12` [Example 15], in experiment [1] (setting [3]), the IC50 was below 3 nM.
On the same count and under the same terms, the figure for `COc1c(C(=O)N2CCCCC2)sc2nc(-c3ccccc3)n3ccnc3c12` [Example 6, (9-methoxy-5-phenylimidazo[1,2-c]thieno[3,2-e]pyrimidin-8-yl)(piperidin-1-yl)methanone] is 10 to 25 nM; for `O=C(c1cc2c(nc(-c3ccccc3)n3ccnc23)s1)N1CCCCC1` [Example 18] it is 10 to 25 nM.
Regarding `CN1Cc2cc(-c3nc4sc(C(=O)N5CCCCC5)c(N)c4c4nccn34)ccc2C1=O` [Example 24, 5-(9-amino-8-(piperidine-1-carbonyl)imidazo[1,2-c]thieno[3,2-e]pyrimidin-5-yl)-2-methylisoindol-1-one], in experiment [1] (setting [3]), the IC50 is below 3 nM. For the same molecule, the values for the PGE2 up-regulation rate in experiment [2] (compound 3.2 nM), in experiment [2] (compound 16 nM) and in experiment [2] (compound 80 nM) were 568%, 461% and 473%, respectively.
In the case of `N#Cc1c(C(=O)N2CCCCC2)sc2nc(-c3ccccc3)n3ccnc3c12` [Example 22], in experiment [1] (setting [3]), the IC50 was 3 to 10 nM.
Take `Nc1c(C(=O)N2CCC(F)CC2)sc2nc(-c3ccccc3)n3ccnc3c12` [Example 1, (9-amino-5-phenylimidazo[1,2-c]thieno[3,2-e]pyrimidin-8-yl)(4-fluoropiperidin-1-yl)methanone]: the IC50 in experiment [1] (setting [3]) is below 3 nM; in experiment [1] (stated in text as bounds, read-out: IC50 value of the inhibitory activity against 15-PGDH enzyme), below 1.5 nM.
For the molecule `Cn1ccc2cc(-c3nc4sc(C(=O)N5CCCCC5)c(N)c4c4nccn34)ccc2c1=O` [Example 25, 6-(9-amino-8-(piperidin-1-carbonyl)imidazo[1,2-c]thieno[3,2-e]pyrimidin-5-yl)-2-methylisoquinolin-1(2H)-one], the concentration for half-maximal inhibition (IC50) in experiment [1] (setting [3]) is below 3 nM. The PGE2 up-regulation rate in experiment [2] (compound 3.2 nM) came out at 513%; in experiment [2] (compound 16 nM), 782%; in experiment [2] (compound 80 nM) it was 741%.
Turning to `Nc1c(C(=O)N2CCCCC2)sc2nc(-c3ccc4ccccc4n3)n3ccnc3c12` [Example 20], the IC50 in experiment [1] (setting [3]) was 10 to 25 nM.
For the molecule `Nc1c(C(=O)N2CCCCC2)sc2nc(-c3cnccn3)n3ccnc3c12` [Example 21], the IC50 in experiment [1] (setting [3]) was below 3 nM. The same molecule returned a PGE2 up-regulation rate in experiment [2] (compound 400 nM) of 321%.
On to `Nc1c(C(=O)N2CCCCC2)sc2nc(-c3nccs3)n3ccnc3c12` [Example 19], for which the IC50 in experiment [1] (setting [3]) lay in the range of 10 to 25 nM.
For the molecule `Nc1c(C(=O)N2CCCCC2)sc2nc(-c3ccccn3)n3ccnc3c12` [Example 10], in experiment [1] (setting [3]), the IC50 lay within 3 to 10 nM.
The same measure, in the same setting: the figure for `Nc1c(C(=O)N2CCCCC2)sc2nc(-c3ccccc3)n3ccnc3c12` [Example 7] is below 3 nM.
